Experimental findings from ChEMBL document CHEMBL1649434, “Regulation of mprF in daptomycin-nonsusceptible Staphylococcus aureus strains” (2009) are described below.

≈ marks a conversion by molar mass, not a printed value.

The subject of experiment [1] is Staphylococcus aureus. The experiment in a line: Antimicrobial activity against Staphylococcus aureus isolate 629 by Etest. The experiment is classed as functional.
Experiment [2] relates to Staphylococcus aureus. In words: Antimicrobial activity against Staphylococcus aureus isolate 701 harboring mprF C884A mutant gene by Etest. Type of experiment: functional.
For experiment [3], the system named is Staphylococcus aureus. The experiment in a line: Antimicrobial activity against Staphylococcus aureus isolate 703 harboring mprF C884A mutant gene by Etest. Type of experiment: functional.
Experiment [4] concerns Staphylococcus aureus. The experiment in a line: microbe, parasite or virus in culture. Conditions: isolate 616.
Description: Antimicrobial activity against Staphylococcus aureus isolate 616 by Etest

Turning to `CCCCCCCCCC(=O)N[C@@H](Cc1c[nH]c2ccccc12)C(=O)N[C@H](CC(N)=O)C(=O)N[C@@H](CC(=O)O)C(=O)N[C@@H]1C(=O)NCC(=O)N[C@@H](CCCN)C(=O)N[C@@H](CC(=O)O)C(=O)N[C@H](C)C(=O)N[C@@H](CC(=O)O)C(=O)NCC(=O)N[C@H](CO)C(=O)N[C@@H]([C@H](C)CC(=O)O)C(=O)N[C@@H](CC(=O)c2ccccc2N)C(=O)O[C@@H]1C`, the MIC with Staphylococcus aureus [1] is 0.75 µg/mL (≈ 0.463 µM); against Staphylococcus aureus [2], 2 µg/mL (≈ 1.23 µM); against Staphylococcus aureus [3], 2 µg/mL (≈ 1.23 µM); against Staphylococcus aureus [4], 0.5 µg/mL (≈ 0.309 µM).
